According to PMC8496750, “Identification of the organic anion transporting polypeptides responsible for the hepatic uptake of the major metabolite of epyrifenacil, S‐3100‐CA, in mice” (Pharmacology Research & Perspectives, 2021):

Assays:
mouse Oatp1a4 = target: T1, mouse Oatp1a4 (Mus musculus, UniProt Q9EP96); assay: Uptake assay for radiolabeled substrates, mouse Oatp1a4 expressing 293FT cells; conditions: 10‐min incubation
T1 sequence (Q9EP96 1-670): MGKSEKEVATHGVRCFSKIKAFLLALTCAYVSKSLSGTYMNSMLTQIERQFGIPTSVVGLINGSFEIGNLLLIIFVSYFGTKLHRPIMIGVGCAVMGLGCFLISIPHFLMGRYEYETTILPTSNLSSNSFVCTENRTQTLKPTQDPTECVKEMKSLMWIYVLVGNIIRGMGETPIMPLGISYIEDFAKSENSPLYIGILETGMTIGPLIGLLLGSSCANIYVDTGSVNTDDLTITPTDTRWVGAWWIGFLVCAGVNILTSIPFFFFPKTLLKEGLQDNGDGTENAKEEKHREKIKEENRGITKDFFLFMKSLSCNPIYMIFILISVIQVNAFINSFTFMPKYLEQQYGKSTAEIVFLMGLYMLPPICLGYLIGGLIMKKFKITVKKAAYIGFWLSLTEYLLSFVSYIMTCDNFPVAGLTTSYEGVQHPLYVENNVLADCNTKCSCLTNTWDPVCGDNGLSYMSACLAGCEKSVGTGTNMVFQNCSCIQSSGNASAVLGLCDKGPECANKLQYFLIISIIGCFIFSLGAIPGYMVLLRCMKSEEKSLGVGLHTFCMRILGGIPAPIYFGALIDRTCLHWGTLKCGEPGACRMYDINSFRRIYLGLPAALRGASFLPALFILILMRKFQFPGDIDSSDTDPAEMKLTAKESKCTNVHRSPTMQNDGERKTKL
Procedure: (§1) 293FT cells were purchased from Thermo Fisher Scientific, Inc.. The cells were grown in Dulbecco's modified Eagle medium (supplemented with 4.5 g/L glucose and 2 mM L‐glutamine) at 37°C, 5% CO2, and 95% humidity. The cells were passaged 3 times per week by harvesting cells using trypsin and plating at a density of 1.0 × 10^4 cells/cm^2 in a 10 cm cell culture plate for maintenance culture. The 293FT cells were detached using trypsin and re‐seeded at a density of 2.5 × 10^4 cells/cm^2 in BioCoat™ Collagen I 6‐well plates (Corning Inc.) for transfection and then treated with 1.2 μg of plasmid vector and 3.2 μl of Lipofectamine™ 2000 Transfection Reagent (Thermo Fisher Scientific, Inc.) according to the manufacturer's instructions. After a 3‐h treatment, the transfection medium was replaced with a fresh cell culture medium and incubated at 37°C with 95% humidity and 5% CO2 until ready for the assay.
(§2) Transport experiments were conducted approximately 24 h post‐transfection. The experiments were initiated by aspirating culture medium and addition of pre‐warmed radiolabeled substrate solution (final 1.0% of acetonitrile or 0.9% of ethanol in phosphate‐buffered saline (PBS[−])) to each well. After a 10‐min incubation, cells were washed twice with 1 ml of ice‐cold PBS(−) and lysed with 700 μl of 1.0 M NaOH for 3 h or more at room temperature. The lysate was transferred to a 1.5‐ml tube, and neutralized with 350 μl of 2.0 M HCl and 350 μl of 2.0% sodium dodecyl sulfate (SDS) solution. From the lysate, 1.0 ml was transferred to a vial containing 10 ml of Emulsifier Scintillator Plus to measure the radioactivity in the LSC. The protein concentration of the cell lysate was also measured using a Pierce™ BCA Protein Assay Kit (Thermo Fisher Scientific, Inc.), which was used to normalize, according to the cell number, the radioactivity in the cell lysate extract. The protein assay was performed in duplicate. Each sample type was assayed in triplicate wells, and each run was performed twice. When the difference in mean uptake between OATP expressing cells and mock cells was more than 2 times, the OATP was judged to be involved in transportation of the substrate. […] Each sample type was assayed in triplicate wells.

rat Oatp1b2 = target: T2, rat Oatp1b2 (Rattus norvegicus, UniProt Q9QZX8); assay: Uptake assay for radiolabeled substrates, rat Oatp1b2 expressing 293FT cells; conditions: 10‐min incubation
T2 sequence (Q9QZX8 1-687): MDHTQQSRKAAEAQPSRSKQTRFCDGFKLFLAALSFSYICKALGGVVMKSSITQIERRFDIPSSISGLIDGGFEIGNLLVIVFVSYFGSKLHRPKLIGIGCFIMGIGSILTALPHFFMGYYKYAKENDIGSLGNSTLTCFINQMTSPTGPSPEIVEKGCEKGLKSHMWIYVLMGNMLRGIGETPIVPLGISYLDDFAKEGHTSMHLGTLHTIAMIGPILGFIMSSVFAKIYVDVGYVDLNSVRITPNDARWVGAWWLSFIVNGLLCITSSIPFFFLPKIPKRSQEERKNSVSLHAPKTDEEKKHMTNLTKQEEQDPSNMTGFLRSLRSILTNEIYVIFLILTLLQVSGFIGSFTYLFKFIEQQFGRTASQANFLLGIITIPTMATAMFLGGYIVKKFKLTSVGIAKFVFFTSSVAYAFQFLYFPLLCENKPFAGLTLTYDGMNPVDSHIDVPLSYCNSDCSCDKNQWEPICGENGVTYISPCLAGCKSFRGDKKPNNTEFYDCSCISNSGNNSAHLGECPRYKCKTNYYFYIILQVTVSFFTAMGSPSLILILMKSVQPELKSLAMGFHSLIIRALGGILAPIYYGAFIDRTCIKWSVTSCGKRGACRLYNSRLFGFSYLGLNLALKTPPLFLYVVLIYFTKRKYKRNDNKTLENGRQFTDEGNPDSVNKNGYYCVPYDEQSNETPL
Procedure: as §1, §2

mouse Oatp1a1 = target: T3, mouse Oatp1a1 (Mus musculus, UniProt Q9QXZ6); assay: Uptake assay for radiolabeled substrates, mouse Oatp1a1 expressing 293FT cells; type: in vitro ADME; set-up: expressed in transfected cells; host or cells: 293FT cells; conditions: for Ratio of uptake amount relative to the uptake into mock cells: 10‐min incubation
T3 sequence (Q9QXZ6 1-670): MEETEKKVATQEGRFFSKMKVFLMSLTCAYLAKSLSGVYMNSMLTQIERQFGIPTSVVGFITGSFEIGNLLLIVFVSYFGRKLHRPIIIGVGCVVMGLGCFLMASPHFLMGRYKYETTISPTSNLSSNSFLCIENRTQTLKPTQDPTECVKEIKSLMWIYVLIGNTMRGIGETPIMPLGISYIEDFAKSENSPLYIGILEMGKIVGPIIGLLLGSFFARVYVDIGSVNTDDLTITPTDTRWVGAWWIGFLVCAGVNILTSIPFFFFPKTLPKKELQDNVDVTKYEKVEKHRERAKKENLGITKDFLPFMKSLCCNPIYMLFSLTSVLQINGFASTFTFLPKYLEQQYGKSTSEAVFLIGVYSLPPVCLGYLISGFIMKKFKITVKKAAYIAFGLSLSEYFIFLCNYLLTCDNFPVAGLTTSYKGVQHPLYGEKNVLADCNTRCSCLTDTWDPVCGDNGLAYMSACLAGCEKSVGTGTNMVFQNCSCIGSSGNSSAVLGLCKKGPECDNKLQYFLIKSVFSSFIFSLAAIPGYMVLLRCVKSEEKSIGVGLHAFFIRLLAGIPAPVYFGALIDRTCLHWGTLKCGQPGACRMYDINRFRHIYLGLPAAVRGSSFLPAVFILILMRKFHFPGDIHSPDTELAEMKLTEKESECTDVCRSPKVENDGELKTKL
Procedure: as §1, §2

Structure (SMILES) | Ratio of uptake amount relative to the uptake into mock cells (mouse Oatp1a4; Run_1) | Ratio of uptake amount relative to the uptake into mock cells (mouse Oatp1a4; Run_2) | Ratio of uptake amount relative to the uptake into mock cells (rat Oatp1b2; Run_1) | Ratio of uptake amount relative to the uptake into mock cells (rat Oatp1b2; Run_2) | Ratio of uptake amount relative to the uptake into mock cells (mouse Oatp1a1; Run_1) | Ratio of uptake amount relative to the uptake into mock cells (mouse Oatp1a1; Run_2) | Uptake, times higher than in mock cells (mouse Oatp1a1)
C[C@]12CC[C@@H]3c4ccc(OS(=O)(=O)O)cc4CC[C@H]3[C@@H]1CCC2=O [E3S, Estrone 3‐sulfate] | 1.1 | 1.1 | 10.0 | 4.7 | 23.4 | 34.4 | 
C[C@]12CC[C@@H]3c4ccc(O)cc4CC[C@H]3[C@@H]1CC[C@@H]2O[C@@H]1O[C@H](C(=O)O)[C@@H](O)[C@H](O)[C@H]1O [E217βG, Estradiol 17β‐D‐glucuronide] | 3.7 | 3.3 | 27.4 | 43.2 | 84.9 | 62.2 | > 50 times
Cn1c(C(F)(F)F)cc(=O)n(-c2cc(Oc3cccnc3OCC(=O)O)c(Cl)cc2F)c1=O [S‐3100‐CA] | 8.1 | 4.2 | 6.6 | 8.4 | 3.3 | 4.3 | 
